Earlier results, collected in patent publication US20210319872A1, “DRUG AND DEVICE COMBINATION PRODUCTS WITH IMPROVED SAFETY AND EFFICACY PROFILES” (priority 2016, published 2021).
Read-outs that look alike come from different tables or passages of the source.

For `NC(=O)N1c2ccccc2C=Cc2ccccc21` [Equetro], the Asthenia (in vivo) is listed as 8%, the Ataxia (in vivo) is listed as 15% and the Blurred vision (in vivo) is listed as 6%. For the same compound, the Constipation (in vivo) was 10%, the Dizziness (in vivo) was 44% and the Nausea (in vivo) was 29%. The Pruritus (in vivo) was 8%, the Rash (in vivo) was 7% and the Vomiting (in vivo) was 18%. The Xerostomia (in vivo) was 8%, the “Common side effect, Cardiovascular” value (listed without frequency) was “Cardiovascular: Hypotension” and the “Common side effect, Neurologic” value (listed without frequency) was “Somnolence”. The “Common side effect, Ophthalmic” value (listed without frequency) was “Nystagmus”, the “Serious side effect, Dermatologic” value (listed without frequency) was “Stevens-Johnson syndrome” and the “Serious side effect, Gastrointestinal” value (listed without frequency) was “Gastrointestinal: Pancreatitis”. The “Serious side effect, Immunologic” value (listed without frequency) was “Immunologic: Drug hypersensitivity syndrome”, the “Serious side effect, Neurologic” value (listed without frequency) was “Neurologic: Acute intermittent porphyria” and the “Serious side effect, Other” value (listed without frequency) was “Other: Angioedema”. For the same compound, the “Serious side effect, Respiratory” value (listed without frequency) was “Respiratory: Pulmonary hypersensitivity”.

For `CCCC(CCC)C(=O)O.CCCC(CCC)C(=O)[O-].[Na+]` [Divalproex (Depakote)], the Asthenia (in vivo) is listed as “Neurologic: Asthenia (6% to 27%), Dizziness (up to 25%), Feeling”, the Backache (in vivo) is listed as 1% to less than 5%; migraine, 8%) and the “Common side effects, listed without incidence” value (in vivo) is listed as “Ophthalmic: Amblyopia, Blurred vision, Diplopia (16%)”. For the same compound, the Diplopia (in vivo) was “Ophthalmic: Amblyopia, Blurred vision, Diplopia (16%)”, the Dizziness (in vivo) was “Neurologic: Asthenia (6% to 27%), Dizziness (up to 25%), Feeling” and the Feeling nervous (in vivo) was “nervous (up to 11%), Headache (31%), Insomnia (up to 15%),”. The Headache (in vivo) was “nervous (up to 11%), Headache (31%), Insomnia (up to 15%),”, the Indigestion (in vivo) was 23%), Indigestion (8% to 11%), Loss of appetite (4% to 12%), and the Infectious disease (in vivo) was “Other: Infectious disease (12% to 20%), Influenza (12%)”. The Influenza (in vivo) was “Other: Infectious disease (12% to 20%), Influenza (12%)”, the Insomnia (in vivo) was “nervous (up to 11%), Headache (31%), Insomnia (up to 15%),” and the Nausea (in vivo) was “Nausea (26% to 48%), Vomiting (15% to 27%)”. For the same compound, the Ototoxicity - deafness (in vivo) was “Otic: Ototoxicity - deafness (greater than 1% to less than 5%)”, the Palpitations (in vivo) was “Cardiovascular: Palpitations (greater than 1% to less than 5%),” and the Pancreatitis (in vivo) was “Gastrointestinal: Pancreatitis (greater than 1% to less than 5%)”. The Somnolence (in vivo) was “Somnolence (Adult, 7% to 30%; pediatric, greater than 5%),”, the Tachycardia (in vivo) was “Tachycardia (greater than 1% to less than 5%)” and the “Thrombocytopenia, Dose-related” value (in vivo) was “Dose-related (1% to 27%)”. For the same compound, the Tremor (in vivo) was “Tremor (1% to 57%)” and the Vomiting (in vivo) was “Nausea (26% to 48%), Vomiting (15% to 27%)”.

In the case of `CCOc1nc2cccc(C(=O)O)c2n1Cc1ccc(-c2ccccc2-c2nnn[nH]2)cc1` [Candesartan (Atacand)], the Backache (in vivo) is given as “Musculoskeletal: Backache (3%.)”, the Dizziness (in vivo) is given as “Neurologic: Dizziness (less than 5%)” and the Hypotension (in vivo) is given as “Cardiovascular: Hypotension (18.8%)”. The Pharyngitis (in vivo) was “Respiratory: Pharyngitis (2%), Rhinitis (2%), Upper respiratory”, the Rhinitis (in vivo) was “Respiratory: Pharyngitis (2%), Rhinitis (2%), Upper respiratory” and the Upper respiratory infection (in vivo) was “infection (6%)”.

In the case of `CNC(=O)c1cc(Oc2ccc(NC(=O)Nc3ccc(Cl)c(C(F)(F)F)c3)cc2)ccn1` [Nexavar], the Abdominal pain (hepatocellular carcinoma) is given as 31%, the Acral erythema (hepatocellular carcinoma) is given as “Dermatologic: Acral erythema (hepatocellular carcinoma, 21%;” and the Alopecia (hepatocellular carcinoma) is given as 14%. The Hypoalbuminemia (hepatocellular carcinoma) was 59%, the Hypocalcemia (hepatocellular carcinoma) was 27% and the Lymphocytopenia (hepatocellular carcinoma) was “hepatocellular carcinoma, 47%), Thrombocytopenia (renal cell”. For the same compound, the Thrombocytopenia (hepatocellular carcinoma) was 46%, the Weight decreased (hepatocellular carcinoma) was “decreased (hepatocellular carcinoma, 30%; renal cell carcinoma,” and the Congestive heart failure (in vivo) was “Cardiovascular: Congestive heart failure (1.9%), Hypertension,”. The Hepatitis (in vivo) was under 0.1%, the “Hypertension, All grades” value (in vivo) was “Cardiovascular: Hypertension, All grades (19.1%)” and the “Hypertension, Grade 3 or 4” value (in vivo) was 4.3%. The Infectious disease (in vivo) was “Immunologic: Infectious disease (10% or greater)”, the Pain (in vivo) was at least 10% and the “Prolonged QT interval” value (in vivo) was “(Less than 0.1%)”. The Rash (in vivo) was at most 35%, the “Common side effect, Dermatologic” value (listed without frequency) was “Peeling of skin” and the “Serious side effect, Dermatologic” value (listed without frequency) was “Stevens-Johnson syndrome”. The “Serious side effect, Gastrointestinal” value (listed without frequency) was “Gastrointestinal: Gastrointestinal hemorrhage, Gastrointestinal”, the “Serious side effect, Respiratory” value (listed without frequency) was “Respiratory tract hemorrhage” and the Abdominal pain (renal cell carcinoma) was “Gastrointestinal: Abdominal pain (renal cell carcinoma, 11%;”. For the same compound, the Acral erythema (renal cell carcinoma) was 30%, the Alopecia (renal cell carcinoma) was 27% and the Hemorrhage (renal cell carcinoma) was “Hematologic: Hemorrhage (renal cell carcinoma, 15.3%; thyroid”. For the same compound, the Hypocalcemia (renal cell carcinoma) was 12%, the Lymphocytopenia (renal cell carcinoma) was “Hematologic: Lymphocytopenia (renal cell carcinoma, 23%;” and the Thrombocytopenia (renal cell carcinoma) was 12%. For the same compound, the Weight decreased (renal cell carcinoma) was 10%, the “ALT/SGPT level raised, Grade 3 or higher” value (thyroid carcinoma) was “carcinoma, 4%), AST/SGOT level raised, Grade 3 or 4 (thyroid” and the “ALT/SGPT level raised, all grades” value (thyroid carcinoma) was 59%), AST/SGOT level raised, All grades (thyroid carcinoma,. For the same compound, the “AST/SGOT level raised, All grades” value (thyroid carcinoma) was 54%), the “AST/SGOT level raised, Grade 3 or 4” value (thyroid carcinoma) was 2% and the Abdominal pain (thyroid carcinoma) was 20%. The Acral erythema (thyroid carcinoma) was 69%, the Alopecia (thyroid carcinoma) was 67% and the Decrease in appetite (thyroid carcinoma) was 30%. For the same compound, the Hemorrhage (thyroid carcinoma) was “carcinoma, 17.4%)”, the Hypocalcemia (thyroid carcinoma) was 36% and the “Raised TSH level” value (thyroid carcinoma) was 41%. The “Squamous cell carcinoma of skin” value (thyroid carcinoma) was 3% and the Weight decreased (thyroid carcinoma) was 49%.

In the case of `CC(C)NCC(O)COc1cccc2ccccc12` (stereo not drawn) [Propranolol (Inderal)], the Dizziness (in vivo) is given as “Neurologic: Dizziness (Hypertension, 4% to 7%), Sleep disorder” and the Fatigue (in vivo) is given as “Other: Fatigue (5% to 7%)”.

For `COc1ccc2c3c1O[C@H]1[C@@H](O)C=C[C@H]4[C@@H](C2)N(C)CC[C@@]341` [Codeine], the “Common side effect, Gastrointestinal” value (in vivo) is given as “Gastrointestinal: Constipation, Nausea, Vomiting”, the “Common side effect, Neurologic” value (in vivo) is given as “Neurologic: Dizziness, Lightheadedness, Sedated, Somnolence” and the “Common side effect, Respiratory” value (in vivo) is given as “Respiratory: Dyspnea”. The “Serious side effect, Cardiovascular” value (in vivo) was “Cardiovascular: Hypotension”, the “Serious side effect, Gastrointestinal” value (in vivo) was “Gastrointestinal: Bowel obstruction, Pancreatitis” and the “Serious side effect, Neurologic” value (in vivo) was “Neurologic: CSF pressure: raised, Seizure”. The “Serious side effect, Respiratory” value (in vivo) was “Respiratory: Respiratory depression”.

In the case of `CC1Cc2ccccc2N1NC(=O)c1ccc(Cl)c(S(N)(=O)=O)c1` (stereo not drawn) [Indapamide (Lozol)], the “Dizziness (incidence)” value (in vivo) is listed as “Neurologic: Asthenia, Dizziness (Greater than or equal to 5%),”, the “Headache (incidence)” value (in vivo) is listed as “Headache (Greater than or equal to 5%), Lethargy, Numbness” and the “Hypokalemia (incidence)” value (in vivo) is listed as “Endocrine metabolic: Hypokalemia (3% to 7%)”.

In the case of `C[C@@H](Cc1ccccc1)NC(=O)[C@@H](N)CCCCN` [Lisdexamfetamine (Vyvanse)], the Anxiety (in vivo) is listed as “Psychiatric: Anxiety (Adults, 5% to 6%), Irritability (pediatrics,”, the “Common side effects, listed without incidence” value (in vivo) is listed as “Endocrine metabolic: Decreased body growth, Weight decreased” and the Diarrhea (in vivo) is listed as “Gastrointestinal: Diarrhea (adults, 7%), Loss of appetite (adults, 8%”. For the same compound, the Irritability (in vivo) was 10%), the Rash (in vivo) was “Dermatologic: Rash (pediatrics, 3%)” and the Upper abdominal pain (in vivo) was 6%), Upper abdominal pain (pediatrics, 12%), Vomiting. The Vomiting (in vivo) was “(pediatrics, 9%), Xerostomia (Adults, 26% to 36%; pediatrics, 4%”, the Weight decreased (in vivo) was “(pediatrics, 9%)” and the Xerostomia (in vivo) was “(pediatrics, 9%), Xerostomia (Adults, 26% to 36%; pediatrics, 4%”.

For `NCCCC[C@H](N[C@@H](CCc1ccccc1)C(=O)O)C(=O)N1CCC[C@H]1C(=O)O` [Lisinopril (Prinivil, Zestril)], the Dizziness (in vivo) is given as “Neurologic: Dizziness (12% to 19%), Headache”, the Hyperkalemia (in vivo) is given as “Endocrine metabolic: Hyperkalemia (2.2% to 6%)” and the Hypotension (in vivo) is given as “Cardiovascular: Chest pain, Hypotension (up to 11%), Syncope”. The “Hypotension (Severe)” value (in vivo) was “Cardiovascular: Hypotension (Severe) (9%)”, the Renal impairment (in vivo) was “Renal: Acute renal failure, Renal impairment (2.4%)” and the Stevens-Johnson syndrome (in vivo) was “Dermatologic: Stevens-Johnson syndrome (1% or more), Toxic”. For the same compound, the Syncope (in vivo) was “(5% to 7%)”.

In the case of `COc1cccc(C2(O)CCCCC2CN(C)C)c1` (stereo not drawn) [Tramadol (Ultram)], the Anaphylactoid reaction (in vivo) is given as “Immunologic: Anaphylactoid reaction (less than 1%)”, the Constipation (in vivo) is given as “Gastrointestinal: Constipation (10% to 46%), Nausea (13% to” and the Dizziness (in vivo) is given as “Neurologic: Dizziness (7% to 33%), Headache (3% to 32%),”. The Dyspnea (in vivo) was “Respiratory: Dyspnea (less than 5%), Respiratory depression”, the Flushing (in vivo) was “Dermatologic: Flushing (7.7% to 15.8%), Pruritus (3% to 11.9%)” and the Headache (in vivo) was “Neurologic: Dizziness (7% to 33%), Headache (3% to 32%),”. The Insomnia (in vivo) was “Insomnia (1% to 10.9%), Somnolence (4% to 25%)”, the Myocardial infarction (in vivo) was “Cardiovascular: Myocardial infarction (0.5% to less than 1%)” and the Pancreatitis (in vivo) was “Gastrointestinal: Pancreatitis (0.5% to less than 1%)”. The Pruritus (in vivo) was “Dermatologic: Flushing (7.7% to 15.8%), Pruritus (3% to 11.9%)”, the Serotonin syndrome (in vivo) was “Other: Serotonin syndrome (less than 1%)” and the Somnolence (in vivo) was “Insomnia (1% to 10.9%), Somnolence (4% to 25%)”. The Vomiting (in vivo) was 40%), Vomiting (3% to 17%), Xerostomia (1% to 10%) and the Xerostomia (in vivo) was 40%), Vomiting (3% to 17%), Xerostomia (1% to 10%).

For `COc1ccccc1Oc1c(NS(=O)(=O)c2ccc(C(C)(C)C)cc2)nc(-c2ncccn2)nc1OCCO` [Tracleer], the Decreased hemoglobin (in vivo) is given as “Hematologic: Decreased hemoglobin (6%)”, the “Decreased hemoglobin (Severe)” value (in vivo) is given as “Hematologic: Decreased hemoglobin (Severe) (3%)” and the Headache (in vivo) is given as “Neurologic: Headache (up to 24%)”. The Hypotension (in vivo) was 7%, the “Increased liver aminotransferase level” value (in vivo) was at most 11% and the Palpitations (in vivo) was 5%. For the same compound, the “Serious side effect, Other” value (listed without frequency) was “Other: Angioedema”.

For `CC(CCc1ccccc1)NCC(O)c1ccc(O)c(C(N)=O)c1.Cl` (stereo not drawn), the Dizziness (in vivo) is given as “Neurologic: Dizziness (9% to 20%)”, the Fatigue (in vivo) is given as “Other: Fatigue (11%)” and the Has tingling sensation (in vivo) is given as “Dermatologic: Has tingling sensation (7%.)”. For the same compound, the Nasal congestion (in vivo) was “Respiratory: Nasal congestion (3%)”, the Nausea (in vivo) was “Gastrointestinal: Nausea (14%)” and the Orthostatic hypotension (in vivo, iv) was “Cardiovascular: Orthostatic hypotension (1%, oral; 58%, IV)”. For the same compound, the Orthostatic hypotension (in vivo, po) was “Cardiovascular: Orthostatic hypotension (1%, oral; 58%, IV)”.

For `C=CCC1(C(C)CCC)C(=O)NC(=O)NC1=O` (stereo not drawn) [Seconal (secobarbital)], the “Complex mannerisms - behavior” value (in vivo) is given as “Psychiatric: Complex mannerisms - behavior (Less than 1%.)”, the Liver damage (in vivo) is given as “Hepatic: Liver damage (less than 1%)” and the “Megaloblastic anemia, With prolonged use” value (in vivo) is given as under 1%). The “Serious side effect, Other” value (in vivo) was “Other: Drug dependence, Withdrawal sign or symptom” and the Somnolence (in vivo) was “Neurologic: Somnolence (1% to 3%)”.
